Test results taken from patent EP0034481A1, “2-Methyl-5-thiazole-methylamine and carboxamide derivatives” (Grigg, Ronald Ernest, priority 1980, dated 1981).

Legend:
[1] = Solubility in solvents (qualitative); assay type: physicochemical
[2] = test system: Diazepam cell receptor; experiment: Central nervous system activity: adhesion to specific cell receptor surfaces (diazepam cell receptor); assay type: binding
Method: Various compounds of this invention have been tested for their biological activity. Peripheral activity was determined by contraction of the guinea pig ileum/frog rectus while central nervous system activity was determined by adhesion to specific cell receptor surfaces.

[3] = test system: guinea pig ileum; experiment: Peripheral activity: contraction of the guinea pig ileum, relative to nicotine; assay type: cell-based
Method: Peripheral activity was determined by contraction of the guinea pig ileum/frog rectus while central nervous system activity was determined by adhesion to specific cell receptor surfaces.

[4] = LD50 (acute toxicity); conditions: in vivo

| Compound | soluble in ethanol [1] | soluble in water [1] | Diazepam cell receptor adhesion [2] [mM] | soluble in dilute hydrochloric acid [1] | soluble in chloroform ([1]; chloroform) | soluble in polyethylene glycol ([1]; polyethylene glycol) | Guinea Pig ileum test (% wrt nicotine) [3] [% wrt nicotine] | LD50 [4] [mg/kg] |
| --- | --- | --- | --- | --- | --- | --- | --- | --- |
| Cc1ncc(C(=O)N2CCCC2)s1 [Example 1, 2-Methyl-5-(pyrrolidinocarbonyl)thiazole] | soluble | soluble | 0.55 |  |  |  |  |  |
| Cc1ncc(C(=O)N2CCCCC2)s1 [Example 2, 2-methyl-5-(piperidincrcarbonyl)thiazole] | soluble | soluble | 0.49 |  |  |  |  |  |
| Cc1ncc(C(=O)N2CCOCC2)s1 [Example 3, 2-methyl-S-(morpholinocarbonyl)thiazole] | soluble | soluble | 1.0 | soluble |  |  |  |  |
| Cc1ncc(C(=O)N2CCN(C(=O)c3cnc(C)s3)CC2)s1 [Example 5, N,N'-bis(2-methyl-5-thiazolecarbonyl)piperazine] |  |  |  |  | soluble | soluble |  |  |
| CCN(CC)C(=O)c1cnc(C)s1 [Example 6, N,N-diethyl 2-methyl-5-thiazolecarboxamide] | soluble | soluble | 3.2 |  |  |  |  |  |
| Cc1ncc(C(=O)NC23CC4CC(CC(C4)C2)C3)s1 [Example 7, N-adamantyl 2-methyl-5-thiazolecarboxamide] | soluble | soluble |  | soluble |  |  | 0 |  |
| Cc1nnc(C(=O)N2CCCCC2)o1 [Example 11, 2-methyl-5-(piperidinocarbonyl)oxadiazole] |  | soluble |  |  |  |  |  |  |
| Cc1nnc(C(=O)N2CCCC2)o1 [Example 12, 5-methyl-2-(pyrrolidinocarbonyl)oxadiazole] |  | soluble |  |  |  |  |  |  |
| Cc1nnc(C(=O)N2CCOCC2)o1 [Example 13, 5-methyl-2-(morpholinocarbonyl)oxadiazole] |  | soluble |  |  |  |  |  |  |
| c1ccc(-c2ncc(CN3CCCC3)s2)cc1 [Example 17, 2-phenyl-5-(pyrroli-dinomethyl)thiazole] | soluble |  |  | soluble |  |  |  |  |
| Cc1ncc(CN2CCCC2)s1 [Example 18, 2-methyl-5-(pyrrolidinomethyl)thiazole] | soluble | soluble | 4.4 |  |  |  |  | 7 to 8 |
| Cc1ncc(CN2CCCCC2)s1 [Example 19, 2-methyl-S-(piperidinomethyl)thiazole] | soluble | soluble | 1.0 |  |  |  |  | 7 to 8 |
| Cc1ncc(CN2CCOCC2)s1 [Example 20, 2-methyl-5-(morpholinomethyl)thiazole] | soluble | soluble | 11 | soluble |  |  |  |  |
| CCN(CC)Cc1cnc(C)s1 [Example 21, 2-methyl-5-(diethylaminomethyl)thiazole] | soluble | soluble | 5.5 |  |  |  |  | 80 to 100 |
| c1ccc(-c2ncc(CN3CCCCC3)s2)cc1 [Example 24, 2-phenyl-(5-piperidinomethyl)thiazole] | soluble |  |  | soluble |  |  |  |  |
